Reference: patent US6548511B1, “Insecticidal/acaricidal agents” (Sagami Chemical Research Center, priority 1997, dated 2003)

How the values were obtained:
diamondback moth larvae = experiment: Insecticidal effect on diamondback moth larvae; assay type: in vivo; conditions: 500 ppm, wettable powder, cabbage leaf disc soaked, 3rd instar larvae, 4 days after release
Description: A disc of cabbage leaf (6 cm in diameter) was cut out and soaked for 1 minute in a water-diluted solution of the insecticide of the present invention (wettable powder) produced in accordance with the method of Formulation Example 1. After the soaking, the disc was air-dried and set in a plastic cup (7 cm in inner diameter), and 5 diamondback moth larvae of 3rd instar were released therein (one concentration, two repetition). After 4 days of the release of larvae, mortality and agony of the larvae were examined, and insecticidal ratio (%) was calculated by defining the larvae in agony as ½ dead larvae.

common cutworm larvae = experiment: Insecticidal effect on common cutworm larvae; assay type: in vivo; conditions: 500 ppm, wettable powder, cabbage leaf disc soaked, 3rd instar larvae, 25° C., 5 days
Description: A disc of cabbage leaf (6 cm in diameter) was cut out and soaked for 1 minute in a water-diluted solution of the insecticide of the present invention (wettable powder) produced in accordance with the method of Formulation Example 1. After the soaking, the leaf disc was air-dried and set in a plastic cup (7 cm in inner diameter), and 5 common cutworm larvae of 3rd instar were released therein (one concentration, two repetition). The thus released larvae were kept in a constant temperature chamber at 25° C., mortality and agony of the larvae were examined 5 days thereafter, and insecticidal ratio (%) was calculated by defining the larva in agony as ½ dead larvae.

[1] = system: two-spotted spider mite female imagoes; experiment: Acaricidal effect on two-spotted spider mite imagoes; assay type: in vivo; conditions: 500 ppm, wettable powder sprayed on kidney bean leaf disc, 24 hours after treatment
Description: A total of 10 two-spotted spider mite female imagoes were released on a disc cut out from a kidney bean leaf (3 cm in diameter). The acaricide of the present invention (wettable powder) produced in accordance with the method of Formulation Example 1 was diluted with water to a predetermined concentration, and the solution (3.5 ml) was applied on the just described cut leaf (one concentration, two repetition) using a rotary sprayer (manufactured by Mizuho Rika). After 24 hours of the treatment, mortality of the imagoes was examined to calculate acaricidal ratio (%).

[2] = system: two-spotted spider mite eggs; experiment: Acaricidal effect on two-spotted spider mite eggs; assay type: in vivo; conditions: 500 ppm, wettable powder sprayed on kidney bean leaf disc, egg-killing ratio 8 days after treatment
Description: A total of 5 two-spotted spider mite female imagoes were released on a disc cut out from a kidney bean leaf (3 cm in diameter). The thus released female imagoes were allowed to lay eggs on the cut leaf for 20 hours and then removed. The acaricide of the present invention (wettable powder) produced in accordance with the method of Formulation Example 1 was diluted with water to a predetermined concentration, and the solution (3.5 ml) was applied on the just described disc (one concentration, two repetition) using a rotary sprayer (manufactured by Mizuho Rika). After 8 days of the treatment, the number of unhatched eggs and the number of hatched imagoes were examined to calculate egg-killing ratio (%).

[3] = system: brown rice planthopper larvae; experiment: Insecticidal effect on brown rice planthopper larvae; assay type: in vivo; conditions: 500 ppm, emulsifiable concentrate sprayed on rice seedling, 4th instar larvae, 5 days after treatment
Description: A sprouted rice seedling was set in a glass cylinder (3 cm in inner diameter×17 cm in length), and 5 brown rice planthopper larvae of 4th instar were released therein. A water-diluted solution (0.5 ml) of the insecticide of the present invention (emulsifiable concentrate) produced in accordance with the method of Formulation Example 3 was applied to the just described glass cylinder (one concentration, two repetition) using a sprayer (manufactured by Mizuho Rika). After 5 days of the treatment, mortality and agony of the larvae were examined, and insecticidal ratio (%) was calculated by defining the larva in agony as ½ dead larvae.

[4] = system: adzuki bean weevil imagoes; experiment: Insecticidal effect on adzuki bean weevil imagoes; assay type: in vivo; conditions: 500 ppm, emulsifiable concentrate sprayed, 25° C., 4 days after treatment
green peach aphid larvae = experiment: Insecticidal effect on green peach aphid larvae; assay type: in vivo; conditions: 500 ppm, emulsifiable concentrate, radish leaf soaked, 25° C., 4th day after treatment
Description: A petiole part of a radish leaf was put into a screw bottle (capacity: 10 ml) filled with water, and 5 to 6 per one leaf of green peach aphid imagoes were inoculated. After the inoculation, the resulting bottle was put into a glass cylinder (3.5 cm in diameter and 15 cm in height, equipped with a mesh cover), and the green peach aphid imagoes were allowed to propagate in a constant temperature chamber at 25° C. for 3 days. After removal of the green peach aphid imagoes from the radish leaf, the resulting leaf was soaked (about 5 seconds) in a water-diluted solution of the insecticide (emulsifiable concentrate) of the present invention and then returned into the glass cylinder (one concentration, two repetition). The cylinder was kept in the constant temperature chamber of 25° C., and the number of aphid individuals on the radish leaf was examined on the 4th day after the treatment to calculate the insecticidal ratio (%) based on the result.

Row | Structure (SMILES) | melting point [°C] | Insecticidal ratio (%) (common cutworm larvae) | further results
1 | CCn1c(Nc2cc(Cl)ccc2Cl)nc(C(F)(F)F)cc1=O | 167 to 168 | – | –
2 | Cn1c(Nc2cc(C(F)(F)F)ccc2Cl)nc(C(F)(F)F)cc1=O [Compound No. 20, 2-(2-chloro-5-trifluoromethylphenyl)amino-3-methyl-6-trifluoromethyl-4(3H)-pyrimidinone] | – | 100 | Insecticidal ratio (%) (diamondback moth larvae): 100%
3 | CCCCn1c(Nc2cc(C(F)(F)F)ccc2Cl)nc(C(F)(F)F)cc1=O [Compound No. 22] | – | – | Acaricidal ratio (%) imagoes [1]: 100%; Acaricidal ratio (%) eggs [2]: 100%
4 | CCn1c(Nc2ccc(C(F)(F)F)cc2C(F)(F)F)nc(C(F)(F)F)c(Cl)c1=O [Compound No. 34, 2-{2,4-bis(trifluoromethyl)phenyl}amino-5-chloro-3-ethyl-6-trifluoromethyl-4(3H)-pyrimidinone] | 124 | – | –
5 | Cn1c(Nc2cc(C(F)(F)F)ccc2C(F)(F)F)nc(C(F)(F)F)cc1=O [Compound No. 46, 2-{2,5-bis(trifluoromethyl)phenyl}amino-3-methyl-6-trifluoromethyl-4(3H)-pyrimidinone] | – | 100 | Insecticidal ratio (%) [3]: 100%; Insecticidal ratio (%) (diamondback moth larvae): 100%; Acaricidal ratio (%) imagoes [1]: 100%; Acaricidal ratio (%) eggs [2]: 100%; Insecticidal ratio (%) [4]: 100%; Insecticidal ratio (%) (green peach aphid larvae): 100%
6 | CCn1c(Nc2cc(C(F)(F)F)ccc2C(F)(F)F)nc(C(F)(F)F)cc1=O [Compound No. 47, 2-{2,5-bis(trifluoromethyl)phenyl}amino-3-ethyl-6-trifluoromethyl-4(3H)-pyrimidinone] | 173 to 175 | – | –
7 | CCCn1c(Nc2cc(C(F)(F)F)ccc2C(F)(F)F)nc(C(F)(F)F)c(Cl)c1=O [Compound No. 51, 2-{2,5-bis(trifluoromethyl)phenyl}amino-5-chloro-3-propyl-6-trifluoromethyl-4(3H)-pyrimidinone] | 124 to 126 | – | –
8 | CC(C)Cn1c(Nc2cc(C(F)(F)F)ccc2C(F)(F)F)nc(C(F)(F)F)cc1=O [Compound No. 56, 2-{2,5-bis(trifluoromethyl)phenyl}amino-3-isobutyl-6-trifluoromethyl-4(3H)-pyrimidinone] | – | 100 | Insecticidal ratio (%) (diamondback moth larvae): 100%; Acaricidal ratio (%) imagoes [1]: 100%; Acaricidal ratio (%) eggs [2]: 100%; Insecticidal ratio (%) [4]: 100%
9 | CCC(C)n1c(Nc2cc(C(F)(F)F)ccc2C(F)(F)F)nc(C(F)(F)F)cc1=O (stereo not shown) [Compound No. 58, 2-{2,5-bis(trifluoromethyl)phenyl}amino-3-sec-butyl-6-trifluoromethyl-4(3H)-pyrimidinone] | 165 to 167 | – | –
10 | CCC(C)n1c(Nc2cc(C(F)(F)F)ccc2C(F)(F)F)nc(C(F)(F)F)c(Cl)c1=O (stereo not shown) [Compound No. 59, 2-{2,5-bis(trifluoromethyl)phenyl}amino-3-sec-butyl-5-chloro-6-trifluoromethyl-4(3H)-pyrimidinone] | 133 to 135 | – | –
11 | O=c1cc(C(F)(F)F)nc(Nc2cc(C(F)(F)F)ccc2C(F)(F)F)n1C1CCCCC1 [Compound No. 64, 2-{2,5-bis(trifluoromethyl)phenyl}amino-3-cyclohexyl-6-trifluoromethyl-4(3H)-pyrimidinone] | 154 to 156 | – | –
12 | O=c1c(Cl)c(C(F)(F)F)nc(Nc2cc(C(F)(F)F)ccc2C(F)(F)F)n1C1CCCCC1 [Compound No. 65, 2-{2,5-bis(trifluoromethyl)phenyl}amino-5-chloro-3-cyclohexyl-6-trifluoromethyl-4(3H)-pyrimidinone] | 181 to 183 | – | –
13 | C=CCn1c(Nc2cc(C(F)(F)F)ccc2C(F)(F)F)nc(C(F)(F)F)cc1=O [Compound No. 66, 3-allyl-2-{2,5-bis(trifluoromethyl)phenyl}amino-6-trifluoromethyl-4(3H)pyrimidinone] | 116 to 118 | – | –
14 | CC(C)Cn1c(Nc2cc(C(F)(F)F)ccc2Cl)nc(C(F)(F)F)cc1=O [compound 23, 2-(2-chloro-5-trifluoromethylphenyl)amino-3-isobutyl-6-trifluoromethyl-4(3H)-pyrimidinone] | – | 100 | –
15 | Cn1c(Nc2cc(C(F)(F)F)cc(C(F)(F)F)c2)nc(C(F)(F)F)cc1=O [compound 69, 2-{3,5-bis(trifluoromethyl)phenyl}amino-3-methyl-6-trifluoromethyl-4(3H)-pyrimidinone] | – | 100 | Insecticidal ratio (%) (diamondback moth larvae): 100%
